In article PMC10969377, “N-3-Methylbutyl-benzisoselenazol-3(2H)-one Exerts Antifungal Activity In Vitro and in a Mouse Model of Vulvovaginal Candidiasis” (Current Issues in Molecular Biology, 2024):

Target: T1, Na+, K+-ATPase (Sus scrofa, UniProt P05024)
T1 construct: gene ATP1A1; purified from pig kidney outer medulla
Assay: Na+,K+-ATPase activity inhibition, enzyme purified from pig kidney (Figure S4)
Type: biochemical

Compound	Na+,K+-ATPase activity inhibition, enzyme purified from pig kidney (Figure S4)
CC(C)CCn1[se]c2ccccc2c1=O [N-3mb-bs, N-3-methylbutyl-benzisoselenazol-3(2H)-one]	both N-allyl-bs and N-3mb-bs showed Na^+, K^+-ATPase inhibitory activity (purified from pig kidney outer medulla)
C=CCn1[se]c2ccccc2c1=O [N-allyl-bs, N-allyl-benzisoselenazol-3(2H)-one]	both N-allyl-bs and N-3mb-bs showed Na^+, K^+-ATPase inhibitory activity (purified from pig kidney outer medulla)
